According to patent publication US20240123080A1, “CYTOTOXIC COMPOUNDS AND CONJUGATES THEREOF” (Seagen Inc., priority 2022, published 2024):

What was measured:
CALU1 = experiment: In vitro cytotoxicity of auristatin ADCs and free drugs (CellTiter-Glo, 96 h); assay type: cell-based; conditions: ADC, 96 h
Experimental: (§1) Cancer cells were counted and plated in 40 μL complete growth media in 384-well, white-walled tissue culture treated plates (Corning). Cell plates were incubated at 37° C. and with 5% CO2 overnight to allow the cells to equilibrate. Stock solutions containing ADCs or free drugs were serially diluted in RPMI-1640+20% fetal bovine serum (FBS). 10 μL of each concentration were then added to each cell plate in duplicate. Cells were then incubated at 37° C. and with 5% CO2 for 96 hours, upon which, the cell plates were removed from the incubator and allowed to cool to room temperature for 30 minutes prior to analysis. CellTiter-Glo® luminescent assay reagent (Promega Corporation, Madison, WI) was prepared according to Promega's protocol. 10 μL of CellTiter-Glo® were added to assay plates using a Formulatrix Tempest liquid handler (Formulatrix) and the plates were protected from light for 30 minutes at room temperature. The luminescence of the samples was measured using an EnVision Multimode plate reader (Perkin Elmer, Waltham, MA). Raw data were analyzed in Graphpad Prism (San Diego, CA) using a nonlinear, 4-parameter curve fit model [Y=Bottom+(Top-Bottom)/(1+10^((LogEC50−X)*HillSlope))]. Results are reported as IC50 values, which are defined as the concentration of ADC or free drug required to reduce cell viability to 50%.

HCC2218 = experiment: as above; assay type: cell-based; conditions: ADC, Table 8
Experimental: as §1

SKBR3 = experiment: as above; assay type: cell-based; conditions: ADC, Table 8
Experimental: as §1

SKMEL28 = experiment: as above; assay type: cell-based; conditions: ADC; Table 9; 96 h
Experimental: as §1

A2058 = experiment: as above; assay type: cell-based; conditions: ADC, 96 h
Experimental: as §1

WM2664 = experiment: as above; assay type: cell-based; conditions: ADC, Table 8
Experimental: as §1

SKMEL5 = experiment: as above; assay type: cell-based; conditions: ADC, 96 h
Experimental: as §1

cynomolgus monkeys [1] = experiment: In vivo safety study of hCR011 ADCs, hematology and clinical chemistry (Example 97); parameters: species or system cynomolgus monkey; conditions: 3 mg/kg, four weekly i.v. doses, DAR=4
Experimental: In vivo safety studies were done in naive cynomolgus monkeys. Studies had 1 or 2 animals/group/timepoint of hCR011-MC-VC-MMAE (DAR=4) or hCR011-Example 60 (DAR=4). Animals were administered four weekly doses of 3, 5, or 10 mg/kg of ADC via intravenous (slow bolus) injection. Baseline measurements for hematology and clinical chemistry parameters were taken from blood drawn at one or two time points prior to dosing, and post-dose timepoints were collected at day 8, and also on days 15 and 29 (hematology only).

cynomolgus monkeys [2] = experiment: In vivo toxicology study of hCR011 ADCs at 5 mg/kg (Example 98); parameters: species or system cynomolgus monkey; conditions: DAR=4
Experimental: In vivo toxicology studies were done in naive cynomolgus monkeys. Studies had 2 animals/group/timepoint of hCR011-MC-VC-MMAE (DAR=4) or hCR011-Example 60 (DAR=4). Animals were administered four weekly doses of 5 mg/kg of ADC via intravenous (slow bolus) injection.

## hCR011-MC-VC-MMAE: "conjugate hCR011-MC-VC-MMAE" "(DAR=4)" [reference compound]
CALU1; Table 8
  IC50, CALU1: >30K
CALU1; Table 9
  IC50, CALU1: 14251 ng/mL
HCC2218
  IC50, HCC2218: >30K
SKBR3
  IC50, SKBR3: 2.69 µg/mL
SKMEL28
  IC50, SKMEL28: 14.02 µg/mL
A2058; Table 8
  IC50, A2058: 24.3 µg/mL
A2058; Table 9
  IC50, A2058: 11.118 µg/mL
WM2664
  IC50, WM2664: 4.468 µg/mL
SKMEL5; Table 8
  IC50, SKMEL5: 0.916 µg/mL
SKMEL5; Table 9
  IC50, SKMEL5: 0.668 µg/mL
Cynomolgus monkeys [1]
  neutrophil counts post-administration, FIG. 17: a decrease relative to baseline on days 8, 15, and 29
Cynomolgus monkeys [2]
  neutrophil counts post-dose on Day 8, FIG. 21: a decrease relative to baseline
